This is an account of results in patent publication US9316633B2, “Methods for identifying inhibitors of solute transporters” (The Regents of the University of California, priority 2006, dated 2016).

Each structure is given as a SMILES string.

Broadly, the EC50 is the concentration that produces a half-maximal response.

The first test has as its target T1, UT-B-facilitated water transport (Mus musculus, UniProt Q8VHL0).
T1 construct: endogenous in cells; host or cells: mouse red blood cells (AQP1-null and wild-type mice, CD1 background)
T1 sequence (Q8VHL0 1-384): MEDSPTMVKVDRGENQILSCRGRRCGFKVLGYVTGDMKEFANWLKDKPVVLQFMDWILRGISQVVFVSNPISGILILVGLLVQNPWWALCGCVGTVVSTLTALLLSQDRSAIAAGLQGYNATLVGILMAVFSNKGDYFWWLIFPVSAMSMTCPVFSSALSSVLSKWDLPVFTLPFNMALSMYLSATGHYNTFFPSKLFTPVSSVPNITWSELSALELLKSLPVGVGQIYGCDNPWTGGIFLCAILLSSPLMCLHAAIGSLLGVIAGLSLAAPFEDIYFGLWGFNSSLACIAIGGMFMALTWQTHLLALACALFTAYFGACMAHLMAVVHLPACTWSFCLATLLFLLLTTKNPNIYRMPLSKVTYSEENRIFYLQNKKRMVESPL
As to the kind of experiment: Osmotic water permeability by stopped-flow light scattering, RBCs from AQP1-null mice.
Settings: not given
It is filed as cell-based. As for the experimental part: RBC urea and water permeabilities were assayed by stopped-flow light scattering using a Hi-Tech Sf-51 instrument (Wiltshire, UK). For measurement of urea permeability, dilutions of whole blood (human or mouse; see Example 1) in PBS (hematocrit: approximately 0.5%) were incubated with test compounds for 5 min and then subjected to a 250-mM inwardly directed gradient of urea. After an initial osmotic shrinking phase, the kinetics of increasing cell volume caused by urea influx were measured as the time-course of 90° scattered light intensity at 530 nm, with increasing cell volume resulting in reduced scattered light intensity. As a positive control, 0.7 mM phloretin was added to the RBC suspension prior to stopped-flow experiments. Measurements of water permeability were carried out similarly, with sucrose (cell-impermeant) used instead of urea to establish a 250-mM osmotic gradient. As a positive control, HgCl2 (0.3 mM) was added to the RBC suspension prior to stopped-flow measurements. […]
This example describes chemical knock-out of UT-B by UT-B inhibitors in RBCs and the effect on UT-B-facilitated water transport. […] Osmotic water permeability was measured by stopped-flow light scattering in RBCs from wild-type and AQP1-null mice as shown in FIG. 8A. […]
For `NC(=O)CSc1oc(-c2ccccc2)nc1S(=O)(=O)c1ccc(Br)cc1` [ureainh-101, 2-(4-(4-bromophenylsulfonyl)-2-phenyloxazol-5-ylthio)acetamide], the “effect on water permeability” value was “further inhibited”.

In the next test the test system is RBCs from wild-type mice. As to the kind of experiment: Osmotic water permeability by stopped-flow light scattering, RBCs from wild-type mice. It is filed as cell-based, mouse.
Settings: not given
The protocol: (§1) RBC urea and water permeabilities were assayed by stopped-flow light scattering using a Hi-Tech Sf-51 instrument (Wiltshire, UK). For measurement of urea permeability, dilutions of whole blood (human or mouse; see Example 1) in PBS (hematocrit: approximately 0.5%) were incubated with test compounds for 5 min and then subjected to a 250-mM inwardly directed gradient of urea. After an initial osmotic shrinking phase, the kinetics of increasing cell volume caused by urea influx were measured as the time-course of 90° scattered light intensity at 530 nm, with increasing cell volume resulting in reduced scattered light intensity. As a positive control, 0.7 mM phloretin was added to the RBC suspension prior to stopped-flow experiments. Measurements of water permeability were carried out similarly, with sucrose (cell-impermeant) used instead of urea to establish a 250-mM osmotic gradient. As a positive control, HgCl2 (0.3 mM) was added to the RBC suspension prior to stopped-flow measurements. Osmotic water permeability coefficients (Pf) were computed from light scattering data as described (van Hoek et al., J. Biol. Chem. 267:18267-69 (1992)).
This example describes chemical knock-out of UT-B by UT-B inhibitors in RBCs and the effect on UT-B-facilitated water transport. […] Osmotic water permeability was measured by stopped-flow light scattering in RBCs from wild-type and AQP1-null mice as shown in FIG. 8A. […] AQP1-null RBCs had greater than 5-fold reduced Pf compared to wild-type RBCs.
As to `NC(=O)CSc1oc(-c2ccccc2)nc1S(=O)(=O)c1ccc(Br)cc1` [ureainh-101, 2-(4-(4-bromophenylsulfonyl)-2-phenyloxazol-5-ylthio)acetamide], the “effect on water transport” value is “little effect”.

In a further test the target is T2, UT-B (Homo sapiens, UniProt Q13336).
T2 construct: the indicator cells are red blood cells that endogenously express the UT-B urea transporter; endogenous in cells; host or cells: human red blood cells (whole venous blood, single donor)
T2 sequence (Q13336 1-389): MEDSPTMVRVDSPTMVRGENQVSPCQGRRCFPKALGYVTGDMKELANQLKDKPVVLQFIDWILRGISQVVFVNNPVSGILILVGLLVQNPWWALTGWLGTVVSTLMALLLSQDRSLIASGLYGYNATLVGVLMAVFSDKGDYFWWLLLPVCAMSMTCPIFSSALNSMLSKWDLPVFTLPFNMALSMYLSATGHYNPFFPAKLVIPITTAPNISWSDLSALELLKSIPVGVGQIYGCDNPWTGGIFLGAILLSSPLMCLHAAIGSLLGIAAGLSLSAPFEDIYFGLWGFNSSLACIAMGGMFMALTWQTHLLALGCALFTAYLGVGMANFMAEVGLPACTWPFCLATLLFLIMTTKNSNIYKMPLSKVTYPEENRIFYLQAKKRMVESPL
As to the kind of experiment: Stopped-flow light scattering, urea permeability of human RBCs. It is filed as cell-based. As to conditions: 0.1 μM ureainh-101, 0.2 μM ureainh-302, external exposure at time of mixing. As for the experimental part:
as §1, with “For measurement of urea permeability, dilutions of whole blood (human or mouse; see Example 1) in PBS (hematocrit: approximately 0.5%) were incubated with test compounds for 5 min and then subjected to a 250-mM inwardly directed gradient of urea.” left out
After repeating the 96-well plate RBC lysis assay to confirm compound activity (see Example 2), bona fide urea transport inhibition was determined by stopped-flow light scattering from the kinetics of urea influx (RBC swelling) in response to an inwardly directed urea gradient. Rapid mixing of an RBC suspension with a hyperosmolar solution containing excess 250 mM urea produced rapid cell shrinking due to osmotic water efflux, followed by cell swelling as urea (and water) influx occurred.
To determine EC50 values for urea transport inhibition directly, RBC urea transport was measured by stopped-flow light scattering using a non-saturating concentration of extracellular urea (to avoid possible competition effects). EC50 for inhibition of RBC urea transport was determined independently by comparing stopped-flow light scattering curves to a model of cell shrinking-swelling.
For stopped-flow experiments, a 100-mM gradient of urea (for human RBCs) or N-methylurea (for mouse RBCs) was used to minimize competition effects (apparent urea and N-methylurea affinities at 23° C. are approximately 200 and approximately 100 mM, respectively) (Mayrand et al., J. Gen. Physiol. 81:221-37 (1983)). N-methylurea, with greater than 2-fold slower RBC permeability than urea, was used in mouse studies to better resolve overlapping water and urea transport kinetics. Dose-response data were also collected for human RBCs using a high concentration of 1 M urea to distinguish between competitive vs. non-competitive inhibitor binding.
The two coupled differential equations describing water efflux and solute influx in response to externally added urea or methylurea were numerically integrated using the forward Euler method (Δt=0.01 s) to reproduce the biphasic changes in cell volume observed experimentally. Computations that were performed using the smaller time step (Δt=0.001 s) gave similar results, confirming the adequacy of the 0.01 s time step. Water flux, Jv (in cm^3/s), across erythrocyte membranes is represented by the following equation: Jv=−Pf·S·vw·[(Ie−Ic(i))+(Ue−Uc(i))]; solute flux, Js (in mol/s), is represented by the following equation: Ps·S·(Ue−Uc(i). Permeability coefficients (Pf and Ps) are expressed in units of cm/s, cell surface area (S) in cm^2, extracellular (e) and cellular (c) concentrations of impermeant (I) and urea/methylurea (U) solute in mol/cm^3, and vw is […]. Initial conditions were Ie=Ic(0)=2.9×10^−4 mol/cm^3, Ue=10^−4 mol/cm^3, and Uc(0)=0. For each time step, a new cell volume (normalized to the initial size; V(i+1)/V(0)) and a new cell permeant concentration (U(i+1)) were calculated from V(i+1)/V(0)=V(i)/V(0)−Δt·Pf·(S/V(0))·vw·[Ie(1−V(i)/V(0))+(Ue−Uc(i))] and Uc(i+1)=Uc(i)/V(0)−Δt·Us·(S/V(0))·vw·(Ue−Uc(i)). Normalized cell volume was assumed to be inversely proportional to scattered light intensity. The product of Pf and the surface area-to-volume ratio (S/V(0)) was determined to be 3.4×10^2 s^−1 and 8.5×10^2 s^−1 for human and mouse erythrocytes, respectively, from water permeability measurements. […]
Consider `NC(=O)CSc1oc(-c2ccccc2)nc1S(=O)(=O)c1ccc(Br)cc1` [ureainh-101, 2-(4-(4-bromophenylsulfonyl)-2-phenyloxazol-5-ylthio)acetamide], for which the “inhibition of urea transport, inhibitor added only to urea-containing solution (sidedness)” value is listed as “did not inhibit urea transport”.

The same test, now with this note: 10 min pre-incubation, then wash.
Turning to `NC(=O)CSc1oc(-c2ccccc2)nc1S(=O)(=O)c1ccc(Br)cc1` [ureainh-101, 2-(4-(4-bromophenylsulfonyl)-2-phenyloxazol-5-ylthio)acetamide], the “reversibility of inhibition after washing RBCs” value is listed as “fully reversible inhibition”.

The same test, now with this note: stopped-flow light scattering.
For the molecule `CC(N)=O` [Acetamide, reference compound], the “share of transport in RBCs that is UT-B-dependent” value is given as “greater than 95%”.

The target of a further test is T2, UT-B. Description: RBC lysis assay, human RBCs loaded with acetamide. It is filed as cell-based. As to conditions: Table 5, phthalazinamines; UT-B inhibitory potency.
For `CCN(CC)C(=O)c1ccc(-c2nnc(Nc3ccc(C(=O)N(C)C)cc3)c3ccccc23)cc1` [ureainh-310, 4-(4-(4-(diethylcarbamoyl)phenyl)phthalazin-1-ylamino)-N,N-dimethylbenzamide], the EC50 was 3000 nM. In other words, the single-digit micromolar range.

In turn, `NC(=O)c1ccc(-c2nnc(Nc3ccc(S(N)(=O)=O)cc3)c3ccccc23)cc1` [ureainh-307, 4-(4-(4-sulfamoylphenylamino)phthalazin-1-yl)benzamide] displayed an EC50 of 3000 nM.

Molecule `CCN(CC)C(=O)c1ccc(-c2nnc(Nc3ccc(C(=O)NC)cc3)c3ccccc23)cc1` [ureainh-308, N,N-diethyl-4-(4-(4-(methylcarbamoyl)phenylamino)phthalazin-1-yl)benzamide] came in with an EC50 of 2000 nM.

In turn, `COc1ccc(Nc2nnc(-c3ccc(C(N)=O)cc3)c3ccccc23)cc1` [ureainh-301, 4-(4-(4-methoxyphenylamino)phthalazin-1-yl)benzamide] came in with an EC50 of 100 nM.

`CC(=O)Nc1ccc(Nc2nnc(-c3ccc(O)cc3)c3ccccc23)cc1` [ureainh-317, N-(4-(4-(4-hydroxyphenyl)phthalazin-1-ylamino)phenyl)acetamide] registered an EC50 of 3000 nM.

As for `COc1ccc(-c2nnc(Oc3ccccc3)c3ccccc23)cc1` [ureainh-332, 1-(4-methoxyphenyl)-4-phenoxyphthalazine], it took 2000 nM to reach a half-maximal effect (EC50).

For the molecule `CNC(=O)COc1ccc(Nc2nnc(-c3ccc(C(=O)NCCO)cc3)c3ccccc23)cc1` [ureainh-311, N-(2-hydroxyethyl)-4-(4-(4-(2-(methylamino)-2-oxoethoxy)phenylamino)phthalazin-1-yl)benzamide], the midpoint of the response, the EC50, lay at 800 nM.

Molecule `Cc1ccc(-c2nnc(Nc3ccc(OCC(N)=O)cc3)c3ccccc23)cc1` [ureainh-314, 2-(4-(4-p-tolylphthalazin-1-ylamino)phenoxy) acetamide] showed an EC50 of 2000 nM.

Regarding `COc1ccc(-c2nnc(Nc3ccc(OCC(N)=O)cc3)c3ccccc23)cc1` [ureainh-312, 2-(4-(4-(4-methoxyphenyl)phthalazin-1-ylamino)phenoxy)acetamide], the midpoint of the response, the EC50, lay at 1000 nM.

`COc1ccc(-c2nnc(Nc3ccc(-c4nc5ccccc5[nH]4)cc3)c3ccccc23)cc1` [ureainh-313, N-(4-(1H-benzo[d]imidazol-2-yl)phenyl)-4-(4-methoxyphenyl) phthalazin-1-amine]: the midpoint of the response, the EC50, lay at 10000 nM.

The molecule `COc1ccc(Nc2nnc(-c3ccc(O)cc3)c3ccccc23)cc1` [ureainh-316, 4-(4-(4-methoxyphenylamino)phthalazin-1-yl)phenol] returned an EC50 of 2000 nM.

`Cc1ccc(-c2nnc(Nc3ccc(C(N)=O)cc3)c3ccccc23)cc1S(N)(=O)=O` [ureainh-329, 4-(4-(4-methyl-3-sulfamoylphenyl)phthalazin-1-ylamino) benzamide]: a half-maximal response (EC50) required 5000 nM. Compared with the last molecule, the EC50 is about 2.5-fold higher.

With `CNC(=O)c1ccc(Nc2nnc(-c3ccc(C(N)=O)cc3)c3ccccc23)cc1` [ureainh-304, 4-(4-(4-carbamoylphenyl)phthalazin-1-ylamino)-N-methylbenzamide], the EC50 came out at 600 nM.

In turn, `NC(=O)c1ccc(-c2nnc(Nc3ccc(O)cc3)c3ccccc23)cc1` [ureainh-306, 4-(4-(4-hydroxyphenylamino)phthalazin-1-yl)benzamide] gave an EC50 of 2000 nM.

The same test, now with this note: Table 7, aminobenzimidazoles; UT-B inhibitory potency.
For `CCn1c(NC(C)c2cc(Cl)ccc2O)nc2ccccc21` (stereo not drawn) [ureainh-423, 4-chloro-2-(1-(1-ethyl-1H-benzo[d]imidazol-2-ylamino)ethyl)phenol], the EC50 worked out at 5000 nM.

`C=CCn1c(NCc2cc(OC)ccc2O)nc2ccccc21` [ureainh-419, 2-((1-allyl-1H-benzo[d]imidazol-2-ylamino)methyl)-4-methoxyphenol] showed an EC50 of 25000 nM.

`Oc1ccccc1CNc1nc2ccccc2n1CCN1CCOCC1` [ureainh-412, 2-((1-(2-morpholinoethyl)-1H-benzo[d]imidazol-2-ylamino)methyl)phenol]: a half-maximal response (EC50) required 6000 nM.

A further test has as its system urea transporter (UT).
Assay: not given
To be noted: 23° C., RBC urea transport; cited from earlier work.
`NC(N)=O` [urea]: the apparent affinity result is reported as “approximately 200 mM”.

With `CNC(N)=O` [N-methylurea], the apparent affinity entry was “approximately 100 mM”.
